Legend:
[1] = 101.33 kPa, Liquid, Vibrating tube method
[2] = molar heat capacity at constant pressure; details: 101.33 kPa, Liquid, Small sample (50 mg) DSC

Brc1cccc(Br)c1 [1,3-dibromobenzene]
Details | mass density [kg/m3] | molar heat capacity at constant pressure [J/K/mol]
[1], 288.15 K | 1964.14 | –
[1], 298.15 K | 1948.87 | –
[1], 308.15 K | 1933.61 | –
[1], 318.15 K | 1918.3 | –
[1], 328.15 K | 1903.13 | –
[1], 338.15 K | 1887.88 | –
[2], 283.15 K | – | 176.01
[2], 285.15 K | – | 176.4
[2], 287.15 K | – | 176.71
[2], 289.15 K | – | 177.04
[2], 291.15 K | – | 177.38
[2], 293.15 K | – | 177.72
[2], 295.15 K | – | 178.08
[2], 297.15 K | – | 178.44
[2], 299.15 K | – | 178.81
[2], 301.15 K | – | 179.19
[2], 303.15 K | – | 179.58
[2], 305.15 K | – | 179.97
[2], 307.15 K | – | 180.37
[2], 309.15 K | – | 180.78
[2], 311.15 K | – | 181.19
[2], 313.15 K | – | 181.6
[2], 315.15 K | – | 182.01
[2], 317.15 K | – | 182.43
[2], 319.15 K | – | 182.85
[2], 321.15 K | – | 183.28
[2], 323.15 K | – | 183.7
[2], 325.15 K | – | 184.13
[2], 327.15 K | – | 184.55
[2], 329.15 K | – | 184.98
[2], 331.15 K | – | 185.4
[2], 333.15 K | – | 185.83
[2], 335.15 K | – | 186.25
[2], 337.15 K | – | 186.67
[2], 339.15 K | – | 187.08
[2], 341.15 K | – | 187.49
[2], 343.15 K | – | 187.9
[2], 345.15 K | – | 188.3
[2], 347.15 K | – | 188.7
[2], 349.15 K | – | 189.09
[2], 351.15 K | – | 189.47
[2], 353.15 K | – | 189.85

Brc1ccccc1Br [1,2-dibromobenzene]
Details | mass density [kg/m3] | molar heat capacity at constant pressure [J/K/mol]
[1], 288.15 K | 1987.92 | –
[1], 298.15 K | 1972.75 | –
[1], 308.15 K | 1957.62 | –
[1], 318.15 K | 1942.51 | –
[1], 328.15 K | 1927.42 | –
[1], 338.15 K | 1912.34 | –
[2], 283.15 K | – | 177.44
[2], 285.15 K | – | 177.83
[2], 287.15 K | – | 178.12
[2], 289.15 K | – | 178.43
[2], 291.15 K | – | 178.75
[2], 293.15 K | – | 179.08
[2], 295.15 K | – | 179.42
[2], 297.15 K | – | 179.76
[2], 299.15 K | – | 180.12
[2], 301.15 K | – | 180.48
[2], 303.15 K | – | 180.85
[2], 305.15 K | – | 181.22
[2], 307.15 K | – | 181.6
[2], 309.15 K | – | 181.99
[2], 311.15 K | – | 182.38
[2], 313.15 K | – | 182.77
[2], 315.15 K | – | 183.17
[2], 317.15 K | – | 183.57
[2], 319.15 K | – | 183.97
[2], 321.15 K | – | 184.38
[2], 323.15 K | – | 184.79
[2], 325.15 K | – | 185.19
[2], 327.15 K | – | 185.6
[2], 329.15 K | – | 186.01
[2], 331.15 K | – | 186.42
[2], 333.15 K | – | 186.82
[2], 335.15 K | – | 187.23
[2], 337.15 K | – | 187.63
[2], 339.15 K | – | 188.03
[2], 341.15 K | – | 188.42
[2], 343.15 K | – | 188.82
[2], 345.15 K | – | 189.2
[2], 347.15 K | – | 189.58
[2], 349.15 K | – | 189.96
[2], 351.15 K | – | 190.33
[2], 353.15 K | – | 190.69

Clc1ccc(Cl)c(Cl)c1 [1,2,4-trichlorobenzene]
Details | mass density [kg/m3] | molar heat capacity at constant pressure [J/K/mol]
[1], 288.15 K | 1460.65 | –
[1], 298.15 K | 1448.67 | –
[1], 308.15 K | 1436.73 | –
[1], 318.15 K | 1424.8 | –
[1], 328.15 K | 1412.89 | –
[1], 338.15 K | 1400.98 | –
[2], 293.15 K | – | 194.25
[2], 295.15 K | – | 194.57
[2], 297.15 K | – | 194.9
[2], 299.15 K | – | 195.23
[2], 301.15 K | – | 195.57
[2], 303.15 K | – | 195.92
[2], 305.15 K | – | 196.27
[2], 307.15 K | – | 196.63
[2], 309.15 K | – | 196.99
[2], 311.15 K | – | 197.35
[2], 313.15 K | – | 197.72
[2], 315.15 K | – | 198.09
[2], 317.15 K | – | 198.47
[2], 319.15 K | – | 198.85
[2], 321.15 K | – | 199.23
[2], 323.15 K | – | 199.61
[2], 325.15 K | – | 200
[2], 327.15 K | – | 200.38
[2], 329.15 K | – | 200.77
[2], 331.15 K | – | 201.16
[2], 333.15 K | – | 201.55
[2], 335.15 K | – | 201.93
[2], 337.15 K | – | 202.32
[2], 339.15 K | – | 202.71
[2], 341.15 K | – | 203.09
[2], 343.15 K | – | 203.47
[2], 345.15 K | – | 203.85
[2], 347.15 K | – | 204.23
[2], 349.15 K | – | 204.61
[2], 351.15 K | – | 204.98
[2], 353.15 K | – | 205.35

Clc1ccccc1 [chlorobenzene]
Details | mass density [kg/m3] | molar heat capacity at constant pressure [J/K/mol]
[1], 288.15 K | 1111.9 | –
[1], 298.15 K | 1101.14 | –
[1], 308.15 K | 1090.34 | –
[1], 318.15 K | 1079.48 | –
[1], 328.15 K | 1068.57 | –
[1], 338.15 K | 1057.58 | –
[2], 283.15 K | – | 147.73
[2], 285.15 K | – | 148.14
[2], 287.15 K | – | 148.56
[2], 289.15 K | – | 148.99
[2], 291.15 K | – | 149.41
[2], 293.15 K | – | 149.85
[2], 295.15 K | – | 150.29
[2], 297.15 K | – | 150.73
[2], 299.15 K | – | 151.18
[2], 301.15 K | – | 151.64
[2], 303.15 K | – | 152.1
[2], 305.15 K | – | 152.56
[2], 307.15 K | – | 153.03
[2], 309.15 K | – | 153.5
[2], 311.15 K | – | 153.97
[2], 313.15 K | – | 154.45
[2], 315.15 K | – | 154.93
[2], 317.15 K | – | 155.41
[2], 319.15 K | – | 155.9
[2], 321.15 K | – | 156.39
[2], 323.15 K | – | 156.88
[2], 325.15 K | – | 157.37
[2], 327.15 K | – | 157.86
[2], 329.15 K | – | 158.36
[2], 331.15 K | – | 158.86
[2], 333.15 K | – | 159.35
[2], 335.15 K | – | 159.85
[2], 337.15 K | – | 160.35
[2], 339.15 K | – | 160.85
[2], 341.15 K | – | 161.35
[2], 343.15 K | – | 161.85
[2], 345.15 K | – | 162.35
[2], 347.15 K | – | 162.85
[2], 349.15 K | – | 163.34
[2], 351.15 K | – | 163.84
[2], 353.15 K | – | 164.34

Source: the NIST ThermoML archive (doi:10.1021/je600573w)
